Assay results: patent US10342804B2, “Steroid compound for use in the treatment of hepatic encephalopathy” (Umecrine Cognition AB, priority 2014, dated 2019)

Assays:
Format in all cases: in vivo, rat
[1] = test system: blood ammonia; experiment: Blood ammonia, PCS rats (Example 12)
Method: Male Wistar rats (220-240 g) were anesthetized with isoflurane, and an end-to side porta-caval anastomosis was performed as described by Lee and Fisher (Surgery, 1961, 50, 668-672).
Rats that were subjected to the porta-caval anastomosis procedure are herein referred to as “PCS rats”.
(§1) 3α-ethynyl-3β-hydroxyandrostan-17-one oxime in sesame oil was administered by subcutaneous injections in the back of the rats, once daily. Two different sets of experiments were performed in hyperammonemic rats. In the first set four groups of rats were used: 1) control rats injected with vehicle; 2) hyperammonemic rats injected with vehicle; 3) control rats injected with 20 mg/Kg of 3α-ethynyl-3β-hydroxyandrostan-17-one oxime and 4) hyperammonemic rats injected with 20 mg/Kg of 3α-ethynyl-3β-hydroxyandrostan-17-one oxime.
For the experiments using PCS rats, the following groups of rats were used: 1) Sham rats injected with vehicle; 2) PCS rats injected with vehicle; 3-4) PCS rats injected with 0.7 or 2.5 mg/Kg of 3α-ethynyl-3β-hydroxyandrostan-17-one oxime. The number of rats used in each experiment is either shown in the corresponding Figure or given in the description of the corresponding Figure.
Blood ammonia was measured using the kit II Ammonia Arkray test (PocketChem BA, Arkray) using 20 μL of fresh blood following manufacturer's specifications.

[2] = test system: hyperammonemic rats; experiment: Spatial memory in the Morris water maze, chronic hyperammonemia model (Example 3); conditions: 20 mg/kg s.c. once daily, 4th-5th week of treatment
From the text: In this study an animal model of chronic hyperammonemia was used that reproduces many of the cognitive and motor alterations present in hepatic encephalopathy. Rats were fed with ammonia in their food and after two weeks with ammonia enriched food they developed symptoms of hepatic encephalopathy. The beam walking test was made during the 3rd and 4th week of 3α-ethynyl-3β-hydroxyandrostan-17-one oxime treatment while the Morris Water maze test was made during 4th-5th week of 3α-ethynyl-3β-hydroxyandrostan-17-one oxime treatment and the Radial maze test was made during 6th-7th week of 3α-ethynyl-3β-hydroxyandrostan-17-one oxime treatment. […]
The test was carried out as follows; the first day was the pre-training day, rats were put in the water two times for 30 s only to adapt to water. […] The time, speed and path needed to find the hidden platform was recorded by a video tracking system provided by Viewpoint Company (Viewpoint 2.5, Champagne au Mont D′ Or, France) and used as a measure of learning of the task. After 15 training trial, the platform was removed from the pool, the rats were allowed to swim for 90 s in the pool and the time spent in the quadrant where the platform was positioned during training was recorded.

[3] = test system: hyperammonemic rats; experiment: Beam walking test, hyperammonemic rats (Example 8)
Method: Male Wistar rats (140-160 g) were made hyperammonemic by feeding them a diet containing ammonium acetate (30% by weight) (Felipo et al, European Journal of Biochemistry, 1988, 176, 567-571).
as §1, with “oxime. […]” for “oxime.”
Motor coordination was tested as described by Gonzalez-Usano et al (ACS Chemical Neuroscience, 2014, 19, 5(2), 100-105) using a wooden beam (20 mm diameter). Rats were made to traverse a one-meter-long wooden beam located approximately one meter above the ground, and the number of foot faults (slips) was recorded by two observers. The rats were trained for the test by being made to traverse the beam up to five times before measurements were recorded. […]

SMILES: C#C[C@]1(O)CC[C@@]2(C)C(CC[C@@H]3[C@@H]2CC[C@]2(C)/C(=N\O)CC[C@@H]32)C1 (stereo partly drawn) [3α-ethynyl-3β-hydroxyandrostan-17-one oxime]
- Blood ammonia ([1]; 0.7 mg/Kg): 302 ± 30 µM
- Blood ammonia ([1]; 2.5 mg/Kg): 294 ± 37 µM
- Spatial memory in the Morris water maze (time to find the platform) [2]: completely restored spatial memory
- Number of slips, beam walking test ([3]; 3 mg/kg s.c. once daily): 0.8±0.1 slips
- Number of slips, beam walking test ([3]; 20 mg/kg s.c. once daily): 0.78±0.07 slips
